Experiments:
Type in all cases: cell-based
Settings in all cases: medical agent for stimulation in cultured human dermal fibroblast system; no data shown
[1] = tested on: HAS2 hyaluronic acid synthase gene; experiment: Expression amount of HAS2 hyaluronic acid synthase gene in cultured human dermal fibroblast (RT-PCR, relative to RPLP0)
Description: (§1) Moreover, as the clock gene, an amount of expression of a Bmal gene (typified by Bmal1) or a Period gene (typified by Period1) in connection with the core system was measured. As a hyaluronic acid synthase gene, an amount of expression of hyaluronic acid synthase gene 2 (HAS2) was measured. […] In experiments described below, a gene expression amount after 16 hours or 2 hours from the stimulation was used as an index, respectively, and an effect on promotion of expression of the Bmal gene, the Period gene and the HAS2 gene being a test substance was evaluated.
(§2) As a cultured human dermal fibroblast, a commercially available normal human dermal fibroblast derived from adult skin (Cell Application, Inc) was purchased, and used for an experiment. Seeding was made in a DMEM culture medium prepared by adding 10% FBS, 20 mM HEPES, Glutamax and an antibacterial agent, and culture was made at 37° C. under 5% CO2. […] From the cell taken therefrom, RNA was extracted using a commercially available RNA extraction kit, and an expression amount of a clock gene (Period1, Bmal1) and a hyaluronic acid synthase gene (HAS2) was measured using a commercially available PCR primer (Perfect Real Time Primer, TAKARA BIO INC.) according to an RT-PCR method. […]

Period1 clock gene = experiment: Expression amount of Period1 clock gene in cultured human dermal fibroblast (RT-PCR, relative to RPLP0)
Description: as §1, §2

Bmal1 clock gene = experiment: Expression amount of Bmal1 clock gene in cultured human dermal fibroblast (RT-PCR, relative to RPLP0)
Description: as §1, §2

SMILES	time of peaked expression amount of HAS2 after stimulation (circadian rhythm) [1]	time of peaked expression amount of Period1 after stimulation (circadian rhythm) (Period1 clock gene)	time of peaked expression amount of Bmal1 after stimulation (circadian rhythm) (Bmal1 clock gene)
C=C[C@@]1(C)CC(=O)[C@]2(O)[C@@]3(C)[C@@H](O)CCC(C)(C)[C@@H]3[C@H](O)[C@H](OC(C)=O)[C@@]2(C)O1 [forskolin]	approximately 16 hours	2 h	approximately 16 hours
C[C@]12CCC(=O)C=C1CC[C@@H]1[C@@H]2[C@@H](O)C[C@@]2(C)[C@H]1CC[C@]2(O)C(=O)CO [cortisol]	approximately 16 hours	2 h	approximately 16 hours

— patent US20140255527A1, “Expression Promoting Agent For Clock Gene And Hyaluronic Acid Synthase Gene” (SHISEIDO COMPANY, LTD., priority 2011, published 2014)
